Where two headings read alike, the source gives them in different places.
Columns and labels:
[1] = tested on: Mycosphaerella graminicola; anamorph: Septoria tritici; Bayer code SEPTTR; experiment: Fungicidal activity: leaf blotch of wheat, one-day protectant and three-day curative tests on wheat plants; format: in vivo, Septoria tritici on wheat plants (variety Yuma); settings: Zymoseptoria tritici
Protocol: Evaluation of Fungicidal Activity: Leaf Blotch of Wheat (Mycosphaerella graminicola; anamorph: Septoria tritici; Bayer code […]) Wheat plants (variety Yuma) were grown from seed in a greenhouse in 50% mineral soil/50% soil-less Metro mix until the first leaf was fully emerged, with 7-10 seedlings per pot. These plants were inoculated with an aqueous spore suspension of Septoria tritici either prior to or after fungicide treatments. After inoculation the plants were kept in 100% relative humidity (one day in a dark dew chamber followed by two to three days in a lighted dew chamber) to permit spores to germinate and infect the leaf. The plants were then transferred to a greenhouse for disease to develop. The following table presents the activity of typical compounds of the present disclosure when evaluated in these experiments. The effectiveness of the test compounds in controlling disease was determined by assessing the severity of disease on treated plants, then converting the severity to percent control based on the level of disease on untreated, inoculated plants.

[2] = 24 h, One-Day Protectant (1DP), 100 ppm, wheat plants, percent control relative to untreated, inoculated plants, read-out: SEPTTR 100 PPM 1DP (% disease control rating)
[3] = 72 h, Three-Day Curative (3DC), 100 ppm, wheat plants, percent control relative to untreated, inoculated plants, read-out: SEPTTR 100 PPM 3DC (% disease control rating)
[4] = 24 h, read-out: SEPTTR 100 PPM 1DP (% disease control rating)
[5] = 72 h, read-out: SEPTTR 100 PPM 3DC (% disease control rating)

| SMILES | pest or weed control at 100 ppm [1, 2] | pest or weed control at 100 ppm [1, 3] | melting point | pest or weed control at 100 ppm [1, 4] | pest or weed control at 100 ppm [1, 5] |
| --- | --- | --- | --- | --- | --- |
| Nc1nc(=O)n(C(=O)Oc2ccc(Cl)cc2)cc1F [Compound 7] | 76 to 100% | 76 to 100% | 143.2 to 146.3 °C | – | – |
| Nc1nc(=O)n(C(=O)OC2CCCC2)cc1F [Compound 20] | 76 to 100% | 76 to 100% | 139.8 to 140.6 °C | – | – |
| Nc1nc(=O)n(C(=O)Oc2ccc(F)cc2)cc1F [Compound 9] | 76 to 100% | 76 to 100% | 156.8 to 158.2 °C | – | – |
| CCOC(=O)n1cc(F)c(N)nc1=O [Compound 3, ethyl 4-amino-5-fluoro-2-oxopyrimidine-1(2H)-carboxylate] | – | – | 190 to 193 °C | 76 to 100% | 76 to 100% |
| Nc1nc(=O)n(C(=O)Oc2ccccc2Cl)cc1F [Compound 8] | 76 to 100% | 76 to 100% | 222.5 to 224.6 °C | – | – |
| CN(C)/C=N/c1nc(=O)n(C(=O)OCC(C)(C)C)cc1F [Compound 1, 4-(dimethylamino-methyleneamino)-5-fluoro-2-oxo-2H-pyrimidine-1-carboxylic acid 2,2-dimethyl-propyl ester] | – | – | 162 to 164 °C | 76 to 100% | 76 to 100% |
| Nc1nc(=O)n(C(=O)Oc2ccc3ccccc3c2)cc1F [Compound 18] | 76 to 100% | 76 to 100% | 165.8 to 168.1 °C | – | – |
| Nc1nc(=O)n(C(=O)OCc2ccccc2Cl)cc1F [Compound 11] | 76 to 100% | 76 to 100% | 145.8 to 146.8 °C | – | – |
| Cc1ccc(OC(=O)n2cc(F)c(/N=C/N(C)C)nc2=O)cc1 [Compound 24] | – | – | 179 to 181.2 °C | – | – |
| CN(C)/C=N/c1nc(=O)n(C(=O)OC2CCCC2)cc1F [Compound 26] | – | – | 103.5 to 104.6 °C | – | – |
| CC(C)OC(=O)n1cc(F)c(N)nc1=O [Compound 4, isopropyl 4-amino-5-fluoro-2-oxopyrimidine-1(2H)-carboxylate] | – | – | 217 to 219 °C | 76 to 100% | 76 to 100% |
| COC(=O)n1cc(F)c(N)nc1=O [Compound 13] | 76 to 100% | 76 to 100% | 240 to 243 °C | – | – |
| Cc1ccc(OC(=O)n2cc(F)c(N)nc2=O)cc1 [Compound 10] | 76 to 100% | 76 to 100% | 235 to 237 °C | – | – |
| COc1ccc(OC(=O)n2cc(F)c(N)nc2=O)cc1 [Compound 6] | 76 to 100% | 76 to 100% | 172.4 to 173.6 °C | – | – |
| CCCCCOC(=O)n1cc(F)c(N)nc1=O [Compound 19] | 76 to 100% | 76 to 100% | 125.9 to 128.2 °C | – | – |
| Nc1nc(=O)n(C(=O)Oc2ccccc2)cc1F [Compound 5, phenyl 4-amino-5-fluoro-2-oxopyrimidine-1(2H)-carboxylate] | – | – | 175 to 180 °C | 76 to 100% | 76 to 100% |
| Nc1nc(=O)n(C(=S)Oc2ccccc2)cc1F [Compound 21, O-phenyl 4-amino-5-fluoro-2-oxopyrimidine-1(2H)-carbothioate] | 76 to 100% | 76 to 100% | 113 to 116 °C | – | – |
| C=CCOC(=O)n1cc(F)c(N)nc1=O [Compound 17] | 76 to 100% | 76 to 100% | 258 to 260.4 °C | – | – |
| Nc1nc(=O)n(C(=O)OCc2ccccc2)cc1F [Compound 2, benzyl 4-amino-5-fluoro-2-oxopyrimidine-1(2H)-carboxylate] | – | – | 212 to 215 °C | 76 to 100% | 76 to 100% |
| COCCOC(=O)n1cc(F)c(N)nc1=O [Compound 15] | 76 to 100% | 76 to 100% | 94.2 to 96.3 °C | – | – |
| Nc1nc(=O)n(C(=O)OCCOCc2ccccc2)cc1F [Compound 12] | 76 to 100% | 76 to 100% | 142.8 to 145.1 °C | – | – |
| Nc1nc(=O)n(C(=O)OCCCCl)cc1F [Compound 14] | 76 to 100% | 76 to 100% | 145.1 to 146.3 °C | – | – |
| CN(C)/C=N/c1nc(=O)n(C(=O)OCc2ccccc2)cc1F [Compound 23] | – | – | 123.2 to 124.3 °C | – | – |
| Nc1nc(=O)n(C(=O)OCC(Cl)(Cl)Cl)cc1F [Compound 16] | 76 to 100% | 76 to 100% | 219.3 to 221.1 °C | – | – |

Reference: patent publication US8318758B2, “5-fluoro-2-oxopyrimidine-1(2H)-carboxylate derivatives” (Dow AgroSciences, LLC, priority 2009, dated 2012)
